According to the CheMixHub viscosity set:

Test: xn = mol fraction of the nth substance listed

CCCNCCC + CCCO
viscosity [mPa·s], 101.33 kPa
Conditions | x1 = 0.1059 | x1 = 0.2109 | x1 = 0.3116 | x1 = 0.401 | x1 = 0.513 | x1 = 0.5913 | x1 = 0.7036 | x1 = 0.8073 | x1 = 0.885
303.15 K | 1.601 | 1.425 | 1.268 | 1.138 | 0.994 | 0.8936 | 0.7675 | 0.6649 | 0.5972
313.15 K | 1.261 | 1.126 | 1.009 | 0.8968 | 0.7829 | 0.7121 | 0.6195 | 0.5442 | 0.4899

CCOC(=O)c1ccccc1 + Cc1ccccc1
viscosity [mPa·s], 101 kPa
Conditions | 298.15 K | 303.15 K | 313.15 K
x1 = 0.0488 | – | 0.577 | 0.504
x1 = 0.1223 | – | 0.652 | 0.562
x1 = 0.1524 | 0.6845 | – | –
x1 = 0.1712 | – | 0.701 | 0.601
x1 = 0.2201 | – | 0.749 | 0.637
x1 = 0.2923 | – | 0.823 | 0.694
x1 = 0.3425 | – | 0.875 | 0.734
x1 = 0.3548 | 0.9076 | – | –
x1 = 0.4176 | – | 0.954 | 0.795
x1 = 0.4918 | – | 1.035 | 0.858
x1 = 0.5675 | – | 1.123 | 0.926
x1 = 0.63 | 1.279 | – | –
x1 = 0.6436 | – | 1.22 | 1.001
x1 = 0.7352 | 1.452 | – | –
x1 = 0.7452 | – | 1.359 | 1.109
x1 = 0.8194 | – | 1.473 | 1.198
x1 = 0.8445 | 1.655 | – | –
x1 = 0.8969 | – | 1.605 | 1.312
x2 = 0.2273 | 1.495 | – | –
x2 = 0.5945 | 0.939 | – | –
x2 = 0.8392 | 0.679 | – | –

C1=CCCCC1 + c1ccccc1
303.15 K, 101 kPa
Conditions | viscosity [mPa·s]
x1 = 0.1198 | 0.57
x1 = 0.2756 | 0.568
x1 = 0.3442 | 0.569
x1 = 0.4509 | 0.566
x1 = 0.4904 | 0.566
x1 = 0.6697 | 0.568
x1 = 0.7561 | 0.568
x1 = 0.8665 | 0.571

CCCCCCCCCBr + ClC(Cl)(Cl)Cl
101 kPa
Conditions | viscosity [mPa·s]
297.75 K, x1 = 0.0486 | 0.9597
297.75 K, x1 = 0.0978 | 1.013
297.75 K, x1 = 0.1959 | 1.12
297.75 K, x1 = 0.3924 | 1.327
297.75 K, x1 = 0.5939 | 1.527
297.75 K, x1 = 0.7974 | 1.744
303.55 K, x1 = 0.0959 | 0.926
303.55 K, x1 = 0.2498 | 1.086
303.55 K, x1 = 0.3966 | 1.22
303.55 K, x1 = 0.5928 | 1.381
303.55 K, x1 = 0.7755 | 1.526
313.65 K, x1 = 0.0515 | 0.7651
313.65 K, x1 = 0.0985 | 0.8039
313.65 K, x1 = 0.1952 | 0.8852
313.65 K, x1 = 0.3592 | 1.028
313.65 K, x1 = 0.5926 | 1.189
313.65 K, x1 = 0.7767 | 1.301

O=C(O)c1cccc([N+](=O)[O-])c1 + CCCO
viscosity [mPa·s], 101 kPa
Conditions | x1 = 0.219 | x1 = 0.22 | x1 = 0.244 | x1 = 0.261 | x1 = 0.2797 | x1 = 0.2805
318.15 K | 3.007 | 3.007 | 3.286 | 3.62 | 3.951 | 3.95
323.15 K | 2.632 | – | – | – | – | 3.456
